Experimental data published in US9452983B2, “Method for refining quinolinic acid” (CJ CHEILJEDANG CORP., priority 2013, dated 2016).

Experiment: Evaluation of solubility of quinolinic acid with respect to pH
Assay type: physicochemical
Details: room temperature (about 23° C.), pH controlled using 28%-ammonia water and 98% sulfuric acid, FIG. 1
Protocol: Evaluation of solubility of Quinolinic Acid with Respect to pH
Solubility of quinolinic acid in water at room temperature (about 23° C.) with respect to pH was evaluated using a pure quinolinic acid reagent (Sigma-Aldrich Prod. No. P63204), wherein the pH was controlled using a 28%-ammonia water and 98% sulfuric acid).

O=C(O)c1cccnc1C(=O)O [quinolinic acid]
Solubility of quinolinic acid in water with respect to pH: the lower the pH, the lower the solubility
